# Article PMC10266688 (PLOS ONE, 2023)
# Read-outs that look alike come from different tables or passages of the source.
# Key:
# SKOV3 cells = test: MTT cytotoxicity assay, SKOV3 cells, 72 h; format: cell-based; details: Homo sapiens, SK-OV-3; 72 h treatment
# [1] = Repeat IP dosing tolerability in Balb/c and C57BL/6 mice; format: in vivo; details: female Balb/c and C57BL/6 mice
# [2] = Single dose pharmacokinetics in CD1 mice (IV, IP, PO), plasma LC-MS/MS; format: in vivo, mouse; details: for Plasma concentration: individual (Group A)
# Experimental: For single dose pharmacokinetic studies, plasma samples (40 μL) were mixed with 200 μL of a water-methanol mixture 1:9, v/v containing the internal standard elacridar at 400 ng/mL. After mixing by pipetting and centrifuging for 4 min at 6000 rpm, 1 μL of each supernatant was injected into LC-MS/MS system. […] Mobile phase A was acetonitrile/water (5:95, v/v) containing 1% formic acid, and mobile phase B was acetonitrile containing 0.1% formic acid. The gradient was initiated with mobile phase B at 15% and was held at 15% for 0.9 minutes with a flow rate of 0.4 mL/min, then increased to 100% and held for 0.1 minutes, and finally returned back to 15% mobile phase B and allowed to equilibrate until 2.2 minutes. […] The lower limit of quantitation (LLOQ) in plasma was 50 ng/mL.
# Pharmacokinetic parameters were calculated from mean concentration-time data using non-compartmental methods in Phoenix WinNonlin version 8.3 (Certara, Princeton, NJ). Concentrations after the time 0 sample that were below the LLOQ were imputed with ½ that value. Any concentration that was determined to be an outlier by the Grubbs’s outlier test were excluded from analysis. The maximum plasma concentration (Cmax) and time to Cmax (Tmax) were the observed values. The AUClast was calculated using the log-linear trapezoidal method. AUC was extrapolated to infinity (AUCINF) by dividing the last quantifiable concentration by the terminal disposition rate constant (λz). The λz was determined from at least 3 points on the slope of the terminal phase of the concentration-time profile. The terminal half-life (T1/2) was determined by dividing 0.693 by λz. Apparent clearance (Cl/F) was calculated by dividing the dose administered by AUCINF. Apparent volume of distribution (V/F) was calculated by dividing Cl/F by λz. […] The oral and IP bioavailability was calculated as: F(%)={DoseIV×AUC(0−∞)PO/DosePO×AUC(0−∞)IV}.100%
# The Method of Bailer was used to estimate the variance of AUC given the calculated variance of the mean concentration at each time point. […]. In all cases, p < 0.05 was considered statistically significant.
# This was followed by a more detailed pharmacokinetic study, in which CD1 (n = 4; […]. Nine time points for IV and IP (5, 15, 30, 60, 120, 240, 360, 480 and 1440 min) and eight time points for PO (15, 30, 60,120, 240, 360, 480 and 1440 min) administration were set for this pharmacokinetic study. Each of the time point treatment group included 4 animals. Mice were injected IP with 2,2,2-tribromoethanol (150 mg/kg) prior to drawing the blood in microtainers containing K3EDTA via retro-orbital bleeding. Blood samples were centrifuged 10 min at 3000 rpm. Brain samples (right lobe) were collected and weighted. All samples were immediately processed, flash-frozen and stored at -70°C until subsequent analysis. […] Pharmacokinetic parameters were calculated from mean concentration-time data using non-compartmental methods in Phoenix WinNonlin version 8.3 (Certara, Princeton, NJ)). Using the Method of Bailer, there was no different in dose normalized AUClast by any route of administration (S17 Table).
# [3] = tested on: proteasome (4UbFL reporter); test: 4UbFL reporter in ES2-4UbFL tumor and leg muscle of nude mice; format: in vivo, mouse; details: single IP dose Up284 20mg/kg or bortezomib 0.75 mg/kg, 4 h and 24 h
# Experimental: A-C) Female nude mice were inoculated IP with ES2-luc cells, a human ovarian cancer line expressing luciferase. […] The IP tumor tissue and electroporated normal muscle tissue, being spatially distinct, were identified with separate regions of interest (ROI) after simultaneous imaging with IVIS.
# Briefly mice were inoculated IP with ES2 cells stably expressing 4UbFL. After 48 h, the mice were injected with luciferin, imaged and then randomized into 3 groups (n = 5/group). Next, leg muscle of each mouse was electroporated with 4UbFL plasmid (considered as normal tissue). After 48 h (i.e. day 4) the mice were re-imaged and basal bioluminescence (0 h) was separately measured in the leg muscle and peritoneal ROIs.
# [4] = CD-1, mouse, in vivo, ip, 20 mg/kg, Plasma concentration
# [5] = CD-1, mouse, in vivo, ip, 20 mg/kg, Plasma concentration, Mean
# [6] = male CD1 mice, IV 5 mg/kg, 0 min
# [7] = male, CD1, mouse, in vivo, ip, 20 mg/kg
# [8] = male, CD1, mouse, in vivo, iv, 5 mg/kg
# [9] = male, CD1, mouse, in vivo, iv, 5 mg/kg, Plasma concentration
# [10] = male, CD1, mouse, in vivo, iv, 5 mg/kg, Plasma concentration, Mean
# [11] = male, CD1, mouse, in vivo, po, 50 mg/kg
# [12] = male, CD-1, mouse, in vivo, po, 50 mg/kg, Plasma concentration
# [13] = male, CD-1, mouse, in vivo, po, 50 mg/kg, Plasma concentration, Mean
structure (smiles),measurement,setting,value
N#Cc1ccc(/C=C2/C(=O)/C(=C/c3ccc(C#N)cc3)C23CCNCC3)cc1 [Up284],IC50,SKOV3 cells,0.071 µM
same,tolerability of 60 mg/kg IP every third day,[1],toxic
same,MTD,"[1]; mouse, in vivo, ip, read-out: MTD after 3 doses, IP delivery every third day",40 mg/kg
same,time to clear from the bloodstream to a low steady state,"[2]; CD1, mouse, in vivo",2 to 4 h
same,concentration at 15 min,[2]; [4],2.48 µg/mL
same,concentration at 60 min,[2]; [4],2.4 µg/mL
same,concentration at 120 min,[2]; [4],1.95 µg/mL
same,concentration at 240 min,[2]; [4],1.54 µg/mL
same,concentration at 1440 min,[2]; [4],0.75 µg/mL
same,concentration at 5 min,[2]; [5],0.899 µg/mL
same,concentration at 15 min,[2]; [5],2.18 µg/mL
same,concentration at 30 min,[2]; [5],2.46 µg/mL
same,concentration at 60 min,[2]; [5],2.4 µg/mL
same,concentration at 120 min,[2]; [5],2.14 µg/mL
same,concentration at 240 min,[2]; [5],1.74 µg/mL
same,concentration at 360 min,[2]; [5],0.789 µg/mL
same,concentration at 480 min,[2]; [5],0.731 µg/mL
same,concentration at 1440 min,[2]; [5],0.61 µg/mL
same,"Plasma concentration, Mean","[2]; CD-1 mice, IP 20 mg/kg, 0 min",BQL
same,Plasma concentration,"[2]; CD-1 mice, IP 20 mg/kg, 0 min",BQL
same,"Plasma concentration, Mean","[2]; CD-1 mice, PO 50 mg/kg, 0 min",BQL
same,Plasma concentration,"[2]; CD-1 mice, PO 50 mg/kg, 0 min",BQL
same,adverse effects during PK study,"[2]; IV 5, IP 20, PO 50 mg/kg",No obvious adverse effects
same,dose normalized AUClast by route of administration,[2]; Method of Bailer,no different
same,"Plasma concentration, Mean",[2]; [6],BQL
same,Plasma concentration,[2]; [6],BQL
same,Plasma concentration,"[2]; male CD1 mice, IV 5 mg/kg, 1440 min, class symbol",BQL
same,AUC(0-inf),[2]; [7],69.5 µg·h/mL
same,AUC(0-t),[2]; [7],23 µg·h/mL
same,Cmax,[2]; [7],2.46 µg/mL
same,Tmax,[2]; [7],0.5 h
same,bioavailability,[2]; [7],78%
same,half-life,[2]; [7],52.8 h
same,k el,[2]; [7],3.65e-06 s⁻¹
same,AUC(0-inf),[2]; [8],9.77 µg·h/mL
same,AUC(0-t),[2]; [8],6.58 µg·h/mL
same,Cmax,[2]; [8],1.51 µg/mL
same,Vd,[2]; [8],10 L/kg
same,half-life,[2]; [8],19 h
same,k el,[2]; [8],1.01e-05 s⁻¹
same,concentration at 5 min,[2]; [9],1.61 µg/mL
same,concentration at 15 min,[2]; [9],1.5 µg/mL
same,concentration at 30 min,[2]; [9],1.53 µg/mL
same,concentration at 60 min,[2]; [9],0.793 µg/mL
same,concentration at 120 min,[2]; [9],0.67 µg/mL
same,concentration at 240 min,[2]; [9],0.504 µg/mL
same,concentration at 360 min,[2]; [9],0.256 µg/mL
same,concentration at 5 min,[2]; [10],1.45 µg/mL
same,concentration at 15 min,[2]; [10],1.51 µg/mL
same,concentration at 30 min,[2]; [10],1.26 µg/mL
same,concentration at 60 min,[2]; [10],0.8 µg/mL
same,concentration at 120 min,[2]; [10],0.669 µg/mL
same,concentration at 240 min,[2]; [10],0.421 µg/mL
same,concentration at 360 min,[2]; [10],0.238 µg/mL
same,concentration at 480 min,[2]; [10],0.19 µg/mL
same,concentration at 1440 min,[2]; [10],0.116 µg/mL
same,AUC(0-inf),[2]; [11],22.8 µg·h/mL
same,AUC(0-t),[2]; [11],15.1 µg·h/mL
same,Cmax,[2]; [11],1.83 µg/mL
same,Tmax,[2]; [11],0.25 h
same,bioavailability,[2]; [11],23%
same,half-life,[2]; [11],12.7 h
same,k el,[2]; [11],1.51e-05 s⁻¹
same,concentration at 30 min,[2]; [12],1.46 µg/mL
same,concentration at 60 min,[2]; [12],1.56 µg/mL
same,concentration at 120 min,[2]; [12],1.65 µg/mL
same,concentration at 360 min,[2]; [12],0.318 µg/mL
same,concentration at 15 min,[2]; [13],1.83 µg/mL
same,concentration at 30 min,[2]; [13],1.28 µg/mL
same,concentration at 60 min,[2]; [13],1.43 µg/mL
same,concentration at 120 min,[2]; [13],1.22 µg/mL
same,concentration at 240 min,[2]; [13],0.798 µg/mL
same,concentration at 360 min,[2]; [13],0.473 µg/mL
same,concentration at 480 min,[2]; [13],0.589 µg/mL
same,concentration at 1440 min,[2]; [13],0.425 µg/mL
same,concentration at 240 min,"[2]; male, mouse, in vivo, CD-1 mice, PO 50 mg/kg, 240 min, individual (Groups A-D), read-out: Plasma concentration",0.366 µg/mL
same,concentration at 480 min,"[2]; male, mouse, in vivo, CD-1 mice, PO 50 mg/kg, 480 min, individual (Groups A-D), read-out: Plasma concentration",0.376 µg/mL
same,concentration at 5 min,"[2]; mouse, in vivo, CD-1 mice, IP 20 mg/kg, 5 min, individual (Groups A-D), read-out: Plasma concentration",1.06 µg/mL
same,bioavailability,"[2]; mouse, plasma, intraperitoneal, CD1 mice, IP 20 mg/kg vs IV 5 mg/kg, read-out: IP bioavailability",87%
same,bioavailability,"[2]; mouse, plasma, CD1 mice, PO 50 mg/kg vs IV 5 mg/kg, read-out: oral bioavailability",23%
same,4UbFL bioluminescence signal in muscle tissue vs tumor,[3],similarly enhanced the bioluminescence signal
